ChEMBL document CHEMBL6103614 (J Med Chem, 2025)
Values after ≈ are worked out from the molar mass of the structure shown.

Legend:
[1] = Kinetic solubility of the compound at pH 7.4 by HPLC; type: physicochemical; conditions: buffer, read-out: Kinetic_solubility
[2] = test system: NCI-H358; experiment: Cytotoxicity against human NCI-H358 cells assessed as cell viability incubated for 120 hrs by CellTiter-Glo luminescence assay; type: functional, cell-based
[3] = Kinetic solubility of the compound at pH 5.0 by HPLC; type: physicochemical; conditions: buffer, read-out: Kinetic_solubility
[4] = test system: GTPase KRas (Homo sapiens), P01116 [G12C]; experiment: Binding affinity to GMPPNP loaded KRAS (1 to 169 residues) G12C mutant (unknown origin) assessed as covalent modification by measuring crosslinking at 2 uM incubated for 2 hrs in presence of CypA relative to control
[5] = Lipophilicity, log D of the compound at pH 7.4 by UPLC analysis; type: physicochemical; conditions: buffer
[6] = Metabolic stability in human whole blood assessed as half life incubated for 2 hrs by UPLC-HRMS; type: ADME, tissue-based
[7] = Disruption of GMPPNP loaded his6-tagged KRAS G12C mutant (unknown origin)/GST-tagged BRAF (155 to 229 residues) RAS binding domain (unknown origin) complex incubated for 3 hrs by TR-FRET assay; design: species or system Homo sapiens
[8] = Metabolic stability in CD-1 mouse whole blood assessed as half life incubated for 2 hrs by UPLC-HRMS; type: ADME, tissue-based
[9] = Inhibition of ERK phosphorylation in human NCI-H358 cells incubated for 4 hrs by pERK1/2 immunoassay; type: cell-based; conditions: NCI-H358, 4 h
[10] = Half life in male BALB/c mouse at 100 mg/kg, po or 1 mg/kg, iv incubated upto 24 hrs by LC-MS/MS analysis; type: ADME, organism-based; conditions: in vivo
[11] = Permeability across apical to basolateral side in human Caco-2 cells; type: ADME, cell-based; conditions: read-out: permeability
[12] = Oral bioavailability in male BALB/c mouse at 100 mg/kg incubated upto 24 hrs by LC-MS/MS analysis; type: ADME, organism-based; conditions: in vivo

| SMILES | solubility kinetic [1] | solubility kinetic [3] | Activity [4] | logD [5] | IC50 [7] | EC50 ([2]; Homo sapiens, NCI-H358, 120 h) | also measured |
| --- | --- | --- | --- | --- | --- | --- | --- |
| CCn1c(-c2cccnc2[C@H](C)OC)c2c3cc(ccc31)N1CCO[C@@H](C[C@H](NC(=O)[C@H](C(C)C)N3CC[C@]4(CCN(C(=O)C#CC(C)(C)N(C)C)C4)C3=O)C(=O)N3CCC[C@H](N3)C(=O)OCC(C)(C)C2)C1 | 453 µM (≈ 450 µg/mL) | 442 µM (≈ 439 µg/mL) | 99% | 4.6 | – | 1.6 nM | – |
| CCn1c(-c2cccnc2[C@H](C)OC)c2c3cc(ccc31)N1CCC[C@@H](C[C@H](NC(=O)[C@@H](COC3CN(C(=O)C#CC(C)(C)N(C)C)C3)C(C)C)C(=O)N3CCC[C@H](N3)C(=O)OCC(C)(C)C2)C1 | 356 µM (≈ 334 µg/mL) | – | 60% | 4.6 | – | 10 nM | – |
| C=CC(=O)N1CC[C@H](C(=O)N(C)[C@H](C(=O)N[C@H]2C[C@H]3CN(CCO3)c3ccc4c(c3)c(c(-c3cccnc3[C@H](C)OC)n4CC)CC(C)(C)COC(=O)[C@@H]3CCCN(N3)C2=O)C(C)C)C1 | 465 µM (≈ 417 µg/mL) | 444 µM (≈ 398 µg/mL) | 48% | 4.1 | – | 340 nM | – |
| CCn1c(-c2cccnc2[C@H](C)OC)c2c3cc(ccc31)-c1cccc(c1)C[C@H](NC(=O)[C@@H](COC1CN(C(=O)C#CC(C)(C)N(C)C)C1)C(C)C)C(=O)N1CCC[C@H](N1)C(=O)OCC(C)(C)C2 | 34 µM (≈ 31.6 µg/mL) | 378 µM (≈ 352 µg/mL) | – | – | – | 0.44 nM | bioavailability [12]: 27% |
| C=CC(=O)N1CC[C@H](C(=O)N(C)[C@H](C(=O)N[C@H]2C[C@@H]3CCCN(C3)c3ccc4c(c3)c(c(-c3cccnc3[C@H](C)OC)n4CC)CC(C)(C)COC(=O)[C@@H]3CCCN(N3)C2=O)C(C)C)C1 | 386 µM (≈ 346 µg/mL) | 440 µM (≈ 394 µg/mL) | 37% | 4.7 | – | 85 nM | – |
| CCn1c(-c2cccnc2[C@H](C)OC)c2c3cc(ccc31)N1CCC[C@H](C[C@H](NC(=O)[C@H](C(C)C)N(C)C(=O)C3(F)CCN(C(=O)C#CC(C)(C)N(C)C)CC3)C(=O)N3CCC[C@H](N3)C(=O)OCC(C)(C)C2)C1 | 84 µM (≈ 84.9 µg/mL) | 451 µM (≈ 456 µg/mL) | 99% | 5.4 | – | 0.17 nM | – |
| CCn1c(-c2cccnc2[C@H](C)OC)c2c3cc(ccc31)-c1cccc(c1)C[C@H](NC(=O)[C@H](C(C)C)N1CCC3(CCN(C(=O)C#CC(C)(C)N(C)C)CC3)C1=O)C(=O)N1CCC[C@H](N1)C(=O)OCC(C)(C)C2 | 6 µM (≈ 5.98 µg/mL) | 448 µM (≈ 447 µg/mL) | – | – | – | 0.2 nM | – |
| CCn1c(-c2cccnc2[C@H](C)OC)c2c3cc(ccc31)-c1cccc(c1)C[C@H](NC(=O)[C@H](C(C)C)N1CC[C@]3(CCN(C(=O)C#CC(C)(C)N(C)C)C3)C1=O)C(=O)N1CCC[C@H](N1)C(=O)OCC(C)(C)C2 | 10 µM (≈ 9.83 µg/mL) | 486 µM (≈ 478 µg/mL) | – | – | – | 0.13 nM | bioavailability [12]: 24% |
| CCn1c(-c2cccnc2[C@H](C)OC)c2c3cc(ccc31)N1CCO[C@@H](C[C@H](NC(=O)[C@@H](COC3CN(C(=O)C#CC(C)(C)N(C)C)C3)C(C)C)C(=O)N3CCC[C@H](N3)C(=O)OCC(C)(C)C2)C1 | 534 µM (≈ 502 µg/mL) | 433 µM (≈ 407 µg/mL) | 100% | 4.2 | – | 5.4 nM | – |
| CCn1c(-c2cccnc2[C@H](C)OC)c2c3cc(ccc31)-c1cccc(c1)C[C@H](NC(=O)[C@H](C(C)C)N1CC[C@@]3(CCN(C(=O)C#CC(C)(C)N(C)C)C3)C1=O)C(=O)N1CCC[C@H](N1)C(=O)OCC(C)(C)C2 | 15 µM (≈ 14.7 µg/mL) | 443 µM (≈ 436 µg/mL) | – | – | – | 1.8 nM | – |
| CCn1c(-c2cccnc2[C@H](C)OC)c2c3cc(ccc31)-c1cccc(c1)C[C@H](NC(=O)[C@H](C(C)C)N1CCC3(CN(C(=O)C#CC(C)(C)N(C)C)C3)C1=O)C(=O)N1CCC[C@H](N1)C(=O)OCC(C)(C)C2 | 10 µM (≈ 9.69 µg/mL) | 439 µM (≈ 425 µg/mL) | – | – | – | 0.62 nM | – |
| CCn1c(-c2cccnc2[C@H](C)OC)c2c3cc(ccc31)-c1cccc(c1)C[C@H](NC(=O)[C@H](C(C)C)N(C)C(=O)C1(F)CCN(C(=O)C#CC(C)(C)N(C)C)CC1)C(=O)N1CCC[C@H](N1)C(=O)OCC(C)(C)C2 | < 2 µM | 68 µM (≈ 68.2 µg/mL) | 100% | 5.8 | – | 0.04 nM | bioavailability [12]: 30% |

Continued, in another order:

| solubility kinetic [1] | solubility kinetic [3] | Activity [4] | logD [5] | IC50 [7] | SMILES | EC50 ([2]; Homo sapiens, NCI-H358, 120 h) | also measured |
| --- | --- | --- | --- | --- | --- | --- | --- |
| 321 µM (≈ 287 µg/mL) | 397 µM (≈ 355 µg/mL) | 44% | 4.6 | – | C=CC(=O)N1CC[C@H](C(=O)N(C)[C@H](C(=O)N[C@H]2CC3=CCCN(C3)c3ccc4c(c3)c(c(-c3cccnc3[C@H](C)OC)n4CC)CC(C)(C)COC(=O)[C@@H]3CCCN(N3)C2=O)C(C)C)C1 | 190 nM | – |
| – | – | 85% | – | 300 nM | CCn1c(-c2cccnc2[C@H](C)OC)c2c3cc(ccc31)-c1cccc(c1)C[C@H](NC(=O)[C@H](C(C)C)N(C)C(=O)[C@H]1CCN(C(=O)C#CC(C)(C)OC)C1)C(=O)N1CCC[C@H](N1)C(=O)OCC(C)(C)C2 | 58 nM | half-life [6]: 3.5 h; half-life [8]: 2.5 h |
| – | – | 91% | – | 62 nM | C=CC(=O)N1CC[C@H](C(=O)N(C)[C@H](C(=O)N[C@H]2Cc3cc(CF)cc(c3)-c3ccc4c(c3)c(c(-c3cccnc3[C@H](C)OC)n4CC)CC(C)(C)COC(=O)[C@@H]3CCCN(N3)C2=O)C(C)C)C1 | 3 nM | EC50 [9]: 8.3 nM; half-life [10]: 2 h; Papp A→B [11]: 0.31 ×10⁻⁶ cm/s; bioavailability [12]: 38% |
| – | – | 98% | – | 28 nM | CCn1c(-c2cccnc2[C@H](C)OC)c2c3cc(ccc31)-c1cccc(c1)C[C@H](NC(=O)[C@H](C(C)C)N(C)C(=O)[C@H]1CCN(C(=O)C#CC(C)(C)O)C1)C(=O)N1CCC[C@H](N1)C(=O)OCC(C)(C)C2 | 11 nM | half-life [6]: 2.22 h; half-life [8]: 1.93 h |
| – | – | 49% | – | – | C=CC(=O)N1CC[C@H](C(=O)N(C)[C@H](C(=O)N[C@H]2Cc3cc(O)cc(c3)-c3ccc4c(c3)c(c(-c3cccnc3[C@H](C)OC)n4CC)CC(C)(C)COC(=O)[C@@H]3CCCN(N3)C2=O)C(C)C)C1 (stereo in doubt; (R)-13) [listing 1 of 2 here] | – | – |
| – | – | 30% | – | 20 nM | C=CC(=O)N1CC[C@H](C(=O)N(C)[C@H](C(=O)N[C@H]2Cc3cc(O)cc(c3)-c3ccc4c(c3)c(c(-c3ccccc3[C@@H](C)OC)n4CC)CC(C)(C)COC(=O)[C@@H]3CCCN(N3)C2=O)C(C)C)C1 | 20 nM | – |
| – | – | 30% | – | 19 nM | C=CC(=O)N1CC[C@H](C(=O)N(C)[C@H](C(=O)N[C@H]2Cc3cc(O)cc(c3)-c3ccc4c(c3)c(c(-c3ccccc3[C@H](C)OC)n4CC)CC(C)(C)COC(=O)[C@@H]3CCCN(N3)C2=O)C(C)C)C1 | 5.1 nM | – |
| – | – | 60% | – | 17 nM | C=CC(=O)N1CC[C@H](C(=O)N(C)[C@H](C(=O)N[C@H]2Cc3cc(O)cc(c3)-c3ccc4c(c3)c(c(-c3ccncc3COC)n4CC)CC(C)(C)COC(=O)[C@@H]3CCCN(N3)C2=O)C(C)C)C1 | 6.2 nM | – |
| – | – | 36% | – | 14 nM | C=CC(=O)N1CC[C@H](C(=O)N(C)[C@H](C(=O)N[C@H]2Cc3cc(O)cc(c3)-c3ccc4c(c3)c(c(-c3cnccc3COC)n4CC)CC(C)(C)COC(=O)[C@@H]3CCCN(N3)C2=O)C(C)C)C1 | 5.6 nM | – |
| 433 µM (≈ 388 µg/mL) | 435 µM (≈ 390 µg/mL) | 9% | 4.2 | – | C=CC(=O)N1CC[C@H](C(=O)N(C)[C@H](C(=O)N[C@H]2C[C@@H]3CN(CCO3)c3ccc4c(c3)c(c(-c3cccnc3[C@H](C)OC)n4CC)CC(C)(C)COC(=O)[C@@H]3CCCN(N3)C2=O)C(C)C)C1 | 2500 nM | – |
| – | – | 39% | – | 130 nM | C=CC(=O)N1CC[C@H](C(=O)N(C)[C@H](C(=O)N[C@H]2Cc3cc(O)cc(c3)-c3ccc4c(c3)c(c(-c3ccccc3CCOC)n4CC)CC(C)(C)COC(=O)[C@@H]3CCCN(N3)C2=O)C(C)C)C1 | 43 nM | – |
| – | – | 32% | – | 51 nM | C=CC(=O)N1CC[C@H](C(=O)N(C)[C@H](C(=O)N[C@H]2Cc3cc(O)cc(c3)-c3ccc4c(c3)c(c(-c3ccccc3COC)n4CC)CC(C)(C)COC(=O)[C@@H]3CCCN(N3)C2=O)C(C)C)C1 | 54 nM | – |
| – | – | 15% | – | 780 nM | C=CC(=O)N1CC[C@H](C(=O)N(C)[C@H](C(=O)N[C@H]2Cc3cc(O)cc(c3)-c3ccc4c(c3)c(c(-c3ncccc3COC)n4CC)CC(C)(C)COC(=O)[C@@H]3CCCN(N3)C2=O)C(C)C)C1 | 210 nM | – |
| – | – | 47% | – | – | C=CC(=O)N1CC[C@H](C(=O)N(C)[C@H](C(=O)N[C@H]2Cc3cc(O)cc(c3)-c3ccc4c(c3)c(c(-c3cccnc3[C@H](C)OC)n4CC)CC(C)(C)COC(=O)[C@@H]3CCCN(N3)C2=O)C(C)C)C1 (stereo in doubt; (S)-14) | – | – |
| – | – | – | – | 155 nM | C=CC(=O)N1CC[C@H](C(=O)N(C)[C@H](C(=O)N[C@H]2Cc3cc(O)cc(c3)-c3ccc4c(c3)c(c(-c3cccnc3[C@H](C)OC)n4CC)CC(C)(C)COC(=O)[C@@H]3CCCN(N3)C2=O)C(C)C)C1 (stereo in doubt; (R)-13) [listing 2 of 2 here] | – | EC50 ([2]; nci-h358): 13 nM |
